Measurements: PubChem BioAssay AID330 (DTP/NCI, 2004)
Where “and” joins values, the source holds several entries; their conditions need not be identical. Identical values can stand only once. Toxic doses and inconclusive results are not listed. Peptide text beside a SMILES is read from it. * marks the point of attachment. Cbz = O=C(OCc1ccccc1)*

System: P388 leukemia ip, CD2F1 mice, survival T/C
Test: NCI In Vivo Anticancer Drug Screen. Data for tumor model P388 Leukemia (intraperitoneal) in CD2F1 (CDF1) mice
Settings: endpoint: median survival time, higher = longer survival
How it was run: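 Mice carrying the transplanted tumor received test compound or vehicle. Survival was recorded in each group, and the value is the treated-group measurement divided by that of the vehicle-treated control group.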

[1] = dose: 50.0 mg/kg/injection, schedule: Q01DX009 (ip), vehicle: saline with Tween-80
[2] = dose: 100.0 mg/kg/injection, schedule: Q01DX005 (ip), vehicle: saline with Tween-80
[3] = dose: 200.0 mg/kg/injection, schedule: Q01DX005 (ip), vehicle: saline with Tween-80

CCC1(c2ccccc2)CCC(C#N)C1=N (centres undefined)
T/C (dose: 100.0 mg/kg/injection, schedule: Q01DX001 (ip), vehicle: Klucel (hydroxypropylcellulose) (HPC)): 102 % of control | T/C (dose: 200.0 mg/kg/injection, schedule: Q01DX001 (ip), vehicle: Klucel (hydroxypropylcellulose) (HPC)): 100 % of control | T/C (dose: 400.0 mg/kg/injection, schedule: Q01DX001 (ip), vehicle: Klucel (hydroxypropylcellulose) (HPC)): 98 % of control

COc1cc2c(c(OC)c1O)-c1ccc(OC)c(=O)cc1[C@@H](NC(=O)C(F)(F)F)CC2
T/C (dose: 2.5 mg/kg/injection, schedule: Q01DX009 (ip), vehicle: Klucel (hydroxypropylcellulose) (HPC)): 157 % of control | T/C (dose: 5.0 mg/kg/injection, schedule: Q01DX005 (ip), vehicle: Klucel (hydroxypropylcellulose) (HPC)): 155 % of control | T/C (dose: 5.0 mg/kg/injection, schedule: Q01DX009 (ip), vehicle: Klucel (hydroxypropylcellulose) (HPC)): 159 % of control and 163 % of control | T/C (dose: 10.0 mg/kg/injection, schedule: Q01DX005 (ip), vehicle: Klucel (hydroxypropylcellulose) (HPC)): 155 % of control | T/C (dose: 10.0 mg/kg/injection, schedule: Q01DX009 (ip), vehicle: Klucel (hydroxypropylcellulose) (HPC)): 182 % of control

C=C(N=NNc1ccccc1)c1ccccc1
T/C (dose: 50.0 mg/kg/injection, schedule: Q01DX005 (ip), vehicle: Klucel (hydroxypropylcellulose) (HPC)): 97 % of control | T/C (dose: 100.0 mg/kg/injection, schedule: Q01DX005 (ip), vehicle: Klucel (hydroxypropylcellulose) (HPC)): 101 % of control | T/C (dose: 200.0 mg/kg/injection, schedule: Q01DX005 (ip), vehicle: Klucel (hydroxypropylcellulose) (HPC)): 93 % of control

CC1OC(OC2CC(O)(C(=O)CO)Cc3c(O)c4c(c(O)c32)C(=O)c2ccccc2C4=O)CC(N)C1O (centres undefined)
T/C (dose: 0.05 mg/kg/injection, schedule: Q01DX009 (ip), vehicle: water): 159 % of control | T/C (dose: 0.1 mg/kg/injection, schedule: Q01DX009 (ip), vehicle: water): 185 % of control and 216 % of control | T/C (dose: 0.2 mg/kg/injection, schedule: Q01DX009 (ip), vehicle: water): 221 % of control and 261 % of control | T/C (dose: 0.21 mg/kg/injection, schedule: Q04DX003 (ip), vehicle: water): 172 % of control | T/C (dose: 0.25 mg/kg/injection, schedule: Q04DX003 (ip), vehicle: water): 101 % of control and 122 % of control | T/C (dose: 0.36 mg/kg/injection, schedule: Q04DX003 (ip), vehicle: water): 209 % of control | T/C (dose: 0.39 mg/kg/injection, schedule: Q01DX009 (ip), vehicle: water): 115 % of control | T/C (dose: 0.4 mg/kg/injection, schedule: Q01DX009 (ip), vehicle: water): 115 % of control | T/C (dose: 0.5 mg/kg/injection, schedule: Q04DX003 (ip), vehicle: water): 157 % of control | T/C (dose: 0.6 mg/kg/injection, schedule: Q04DX003 (ip), vehicle: water): 239 % of control | T/C (dose: 0.78 mg/kg/injection, schedule: Q01DX009 (ip), vehicle: water): 86 % of control | T/C (dose: 1.0 mg/kg/injection, schedule: Q04DX003 (ip), vehicle: water): 167 % of control and 183 % of control | T/C (dose: 1.3 mg/kg/injection, schedule: Q01DX001 (ip), vehicle: water): 216 % of control | T/C (dose: 2.4 mg/kg/injection, schedule: Q01DX001 (ip), vehicle: water): 104 % of control | T/C (dose: 3.2 mg/kg/injection, schedule: Q01DX001 (ip), vehicle: water): 97 % of control | T/C (dose: 4.0 mg/kg/injection, schedule: Q04DX003 (ip), vehicle: water): 104 % of control

O=[N+]([O-])c1cccc2c(Nc3ccc(S(=O)(=O)Nc4nccs4)cc3)c3ccccc3nc12
T/C (dose: 15.0 mg/kg/injection, schedule: Q01DX005 (ip), vehicle: saline with Tween-80): 95 % of control | T/C (dose: 30.0 mg/kg/injection, schedule: Q01DX005 (ip), vehicle: saline with Tween-80): 100 % of control | T/C (dose: 60.0 mg/kg/injection, schedule: Q01DX005 (ip), vehicle: saline with Tween-80): 102 % of control and 97 % of control

O=N[O-].O=N[O-].[Co].[NH-]CC[NH-].[NH-]CC[NH-]
T/C (dose: 6.25 mg/kg/injection, schedule: Q04DX003 (ip), vehicle: water): 98 % of control | T/C (dose: 12.5 mg/kg/injection, schedule: Q04DX003 (ip), vehicle: distilled water + Tween-80): 96 % of control | T/C (dose: 12.5 mg/kg/injection, schedule: Q04DX003 (ip), vehicle: water): 101 % of control | T/C (dose: 25.0 mg/kg/injection, schedule: Q04DX003 (ip), vehicle: water): 102 % of control | T/C (dose: 50.0 mg/kg/injection, schedule: Q04DX003 (ip), vehicle: distilled water + Tween-80): 99 % of control | T/C (dose: 50.0 mg/kg/injection, schedule: Q04DX003 (ip), vehicle: water): 96 % of control | T/C (dose: 100.0 mg/kg/injection, schedule: Q04DX003 (ip), vehicle: distilled water + Tween-80): 108 % of control

O=C(c1cccnc1)C(CCc1ccccn1)c1ccccn1 (centres undefined)
T/C (dose: 100.0 mg/kg/injection, schedule: Q04DX003 (ip), vehicle: saline): 100 % of control | T/C (dose: 200.0 mg/kg/injection, schedule: Q04DX003 (ip), vehicle: saline): 100 % of control

FC(F)(F)CO[Te](OCC(F)(F)F)(OCC(F)(F)F)OCC(F)(F)F
T/C (dose: 12.5 mg/kg/injection, schedule: Q01DX001 (ip), vehicle: saline with Tween-80): 106 % of control

CC12CCC(C(=O)C1=O)C2(C)C (centres undefined)
T/C [1]: 102 % of control | T/C (dose: 100.0 mg/kg/injection, schedule: Q01DX009 (ip), vehicle: saline with Tween-80): 93 % of control | T/C (dose: 200.0 mg/kg/injection, schedule: Q01DX009 (ip), vehicle: saline with Tween-80): 95 % of control | T/C (dose: 400.0 mg/kg/injection, schedule: Q01DX009 (ip), vehicle: saline with Tween-80): 97 % of control

CC(C)C(=O)N1CCCCCCN1C(=O)C(C)C
T/C (dose: 100.0 mg/kg/injection, schedule: Q01DX009 (ip), vehicle: Klucel (hydroxypropylcellulose) (HPC)): 107 % of control | T/C (dose: 200.0 mg/kg/injection, schedule: Q01DX009 (ip), vehicle: Klucel (hydroxypropylcellulose) (HPC)): 111 % of control

O=S(=O)(O)C1=CC(=N\Cl)/C=CC/1=N/Cl
T/C (dose: 25.0 mg/kg/injection, schedule: Q01DX005 (ip), vehicle: saline + Tween-80 + alcohol): 100 % of control and 113 % of control | T/C (dose: 50.0 mg/kg/injection, schedule: Q01DX005 (ip), vehicle: saline + Tween-80 + alcohol): 107 % of control and 113 % of control and 119 % of control | T/C (dose: 100.0 mg/kg/injection, schedule: Q01DX005 (ip), vehicle: saline + Tween-80 + alcohol): 111 % of control and 117 % of control | T/C (dose: 200.0 mg/kg/injection, schedule: Q01DX005 (ip), vehicle: saline + Tween-80 + alcohol): 116 % of control and 120 % of control

CN(C=C(C#N)C#N)c1ccccc1
T/C (dose: 12.5 mg/kg/injection, schedule: Q01DX009 (ip), vehicle: saline with Tween-80): 103 % of control | T/C (dose: 25.0 mg/kg/injection, schedule: Q01DX009 (ip), vehicle: saline with Tween-80): 99 % of control | T/C [1]: 99 % of control

O=c1[nH]c(=S)[nH]cc1Oc1ccc(I)cc1
T/C (dose: 12.5 mg/kg/injection, schedule: Q01DX009 (ip), vehicle: Klucel (hydroxypropylcellulose) (HPC)): 106 % of control | T/C (dose: 25.0 mg/kg/injection, schedule: Q01DX009 (ip), vehicle: Klucel (hydroxypropylcellulose) (HPC)): 107 % of control | T/C (dose: 50.0 mg/kg/injection, schedule: Q01DX009 (ip), vehicle: Klucel (hydroxypropylcellulose) (HPC)): 104 % of control

CS(C)=O.CS(C)=O.[Cl][Rh]([Cl])([Cl])[Cl]
T/C (dose: 12.5 mg/kg/injection, schedule: Q04DX003 (ip), vehicle: saline): 100 % of control | T/C (dose: 25.0 mg/kg/injection, schedule: Q04DX003 (ip), vehicle: saline): 109 % of control | T/C (dose: 50.0 mg/kg/injection, schedule: Q04DX003 (ip), vehicle: saline): 118 % of control

CC(=O)N1CCc2ccccc2C1C1NCCc2ccccc21 (centres undefined)
T/C (dose: 100.0 mg/kg/injection, schedule: Q04DX003 (ip), vehicle: Klucel (hydroxypropylcellulose) (HPC)): 95 % of control | T/C (dose: 200.0 mg/kg/injection, schedule: Q04DX003 (ip), vehicle: Klucel (hydroxypropylcellulose) (HPC)): 94 % of control

O=C(Nc1ccccc1)c1c(O)[nH]c(=O)[nH]c1=O
T/C [2]: 163 % of control and 207 % of control | T/C [3]: 204 % of control

COC(=O)C(CC(C)C)NC(=O)C(CO)NC(=O)OCc1ccccc1 (stereo not drawn) (Cbz-Ser-Leu-OMe; configuration not given here)
T/C (dose: 50.0 mg/kg/injection, schedule: Q01DX005 (ip), vehicle: saline with Tween-80): 100 % of control | T/C [2]: 99 % of control | T/C [3]: 100 % of control

CCC(CC)C1NC(C(=O)O)CS1 (centres undefined)
T/C (dose: 50.0 mg/kg/injection, schedule: Q01DX009 (ip), vehicle: suspension in saline): 93 % of control | T/C (dose: 100.0 mg/kg/injection, schedule: Q01DX009 (ip), vehicle: suspension in saline): 96 % of control | T/C (dose: 200.0 mg/kg/injection, schedule: Q01DX009 (ip), vehicle: suspension in saline): 92 % of control
